Among the data in patent US20230114728A1 (Venatorx Pharmaceuticals, Inc., priority 2019, published 2023) are MIC and EC50 values, retold here.

Assay [1] relates to N. gonorrhoeae ATCC 49226. Briefly: Liquid broth MIC in Fastidious broth. It counts as cell-based. Particulars: Neisseria gonorrhoeae, ATCC49226; N. gonorrhoeae strain ATCC 49226; Fastidious broth; read-out: Minimum Inhibitory Concentration, N. gonorrhoeae ATCC 49226. A digest of the protocol: (§1)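 Colonies were swabbed from chocolate agar after 24 h growth and standardised by optical density at 600 nm. Compounds were serially diluted twofold in Fastidious broth, and bacteria added to give 5×10^5 CFU/mL. After about 24 h at 36 °C in 5% CO2, the lowest concentration allowing under 10% growth was taken as MIC.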

The test system of assay [2] is N. gonorrhoeae WHO K. Briefly: Liquid broth MIC in Fastidious broth. It counts as cell-based. The following applies: Neisseria gonorrhoeae, read-out: Minimum Inhibitory Concentration, N. gonorrhoeae WHO K. A digest of the protocol: (§2)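 Mosaic PBP2 producers; colonies from 24 h chocolate agar, saline suspension, OD600. Fastidious broth, 2-fold dilutions, 5×10^5 CFU/mL. ~24 h, 36 °C, 5% CO2; visual MIC, <10% growth cutoff.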

Assay [3] has as its system N. gonorrhoeae WHO G. Nature of the assay: Liquid broth MIC in Fastidious broth. The format is cell-based. Particulars: Neisseria gonorrhoeae; N. gonorrhoeae strain WHO G; Fastidious broth; read-out: Minimum Inhibitory Concentration, N. gonorrhoeae WHO G. A digest of the protocol: as §1
Assay [4] has as its system N. gonorrhoeae WHO L. Nature of the assay: Liquid broth MIC in Fastidious broth. The following applies: Neisseria gonorrhoeae; N. gonorrhoeae strain WHO L; Fastidious broth; read-out: Minimum Inhibitory Concentration, N. gonorrhoeae WHO L. The format is cell-based. The essentials:
as §1

Assay [5] relates to N. gonorrhoeae FA1090. Briefly: Liquid broth MIC in Fastidious broth. It counts as cell-based. Particulars: Neisseria gonorrhoeae; N. gonorrhoeae strain FA1090; Fastidious broth; read-out: Minimum Inhibitory Concentration, N. gonorrhoeae FA1090. A digest of the protocol:
as §1

In assay [6] the test system is N. gonorrhoeae H041. Nature of the assay: Liquid broth MIC in Fastidious broth. The format is cell-based. Particulars: Neisseria gonorrhoeae, H041, read-out: Minimum Inhibitory Concentration, N. gonorrhoeae H041. A digest of the protocol:
as §2

Assay [7] has as its target T1, E. coli K12 PBP3 (Escherichia coli, UniProt P0AD68).
T1 construct: made in house
Nature of the assay: biochemical. The format is binding. The essentials: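 Fluorescence polarization (ex 490/em 520 nm) competition of inhibitors against Bocillin-FL at 0.1 μM, read up to 60 min. Final PBP levels: E. coli PBP3 1.5 μM; A. baumannii PBP2 2.5 μM, PBP3 0.2 μM in Tris pH 8.0/NaCl/glycerol/Tween 20; N. gonorrhoeae PBP2 […] in Hepes pH 8.0/NaCl/glycerol. EC50 = concentration halving PBP-bound Bocillin-FL.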

Values after ≈ are worked out from the molar mass of the structure shown.

T1 sequence (P0AD68 1-577): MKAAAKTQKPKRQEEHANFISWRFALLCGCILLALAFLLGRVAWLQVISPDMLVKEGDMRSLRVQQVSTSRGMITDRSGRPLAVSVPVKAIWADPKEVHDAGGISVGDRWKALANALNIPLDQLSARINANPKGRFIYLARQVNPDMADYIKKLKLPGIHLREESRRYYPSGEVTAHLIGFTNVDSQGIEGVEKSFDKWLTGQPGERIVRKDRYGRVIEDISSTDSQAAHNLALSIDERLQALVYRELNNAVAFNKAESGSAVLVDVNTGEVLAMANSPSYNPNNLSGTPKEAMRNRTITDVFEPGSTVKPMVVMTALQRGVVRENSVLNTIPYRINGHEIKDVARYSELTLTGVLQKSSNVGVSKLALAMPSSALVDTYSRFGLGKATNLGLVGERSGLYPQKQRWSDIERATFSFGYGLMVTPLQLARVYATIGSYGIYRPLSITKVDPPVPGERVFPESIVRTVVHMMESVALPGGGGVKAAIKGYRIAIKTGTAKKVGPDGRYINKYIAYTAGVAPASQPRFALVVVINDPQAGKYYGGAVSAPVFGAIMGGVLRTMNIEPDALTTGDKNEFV

With `N=C(N)NCCN1CCN(C(=O)NC(C(=O)N[C@H]2Cc3ccc(F)c(C(=O)O)c3OB2O)c2ncc(O)cc2F)C(=O)C1=O` (stereo partly drawn) [Example 51, (3R)-7-fluoro-3-(2-(3-fluoro-5-hydroxypyridin-2-yl)-2-(4-(2-guanidinoethyl)-2,3-dioxopiperazine-1-carboxamido)acetamido)-2-hydroxy-3,4-dihydro-2H-benzo[e][1,2]oxaborinine-8-carboxylic acid], the MIC is 4 to 8 µg/mL (≈ 6.47 to 12.9 µM) in assay [1]; more than 64 µg/mL in assay [2]; 4 to 8 µg/mL (≈ 6.47 to 12.9 µM) in assay [3]; more than 64 µg/mL in assay [4]; 4 to 8 µg/mL (≈ 6.47 to 12.9 µM) in assay [5]; more than 64 µg/mL in assay [6]. In addition, the EC50 in assay [7] fell in the range of 30 to 500 µM.

Take `N=C(N)NC(C(=O)N[C@H]1Cc2ccc(F)c(C(=O)O)c2OB1O)c1ncc(O)cc1F` (stereo partly drawn) [Example 52, (3R)-7-fluoro-3-(2-(3-fluoro-5-hydroxypyridin-2-yl)-2-guanidinoacetamido)-2-hydroxy-3,4-dihydro-2H-benzo[e][1,2]oxaborinine-8-carboxylic acid]: the MIC in assay [1], in assay [2], in assay [3], in assay [4], in assay [5] and in assay [6] was more than 64 µg/mL each time. Also, in assay [7], the EC50 was more than 500 µM.

For the molecule `O=C(NC(C(=O)N[C@H]1Cc2ccc(F)c(C(=O)O)c2OB1O)c1ncc(O)cc1F)c1ccnc(F)c1` (stereo partly drawn) [Example 53, (3R)-7-fluoro-3-(2-(3-fluoro-5-hydroxypyridin-2-yl)-2-(2-fluoroisonicotinamido)acetamido)-2-hydroxy-3,4-dihydro-2H-benzo[e][1,2]oxaborinine-8-carboxylic acid], the MIC was more than 64 µg/mL in assay [1]; more than 64 µg/mL in assay [2]; more than 64 µg/mL in assay [3]; more than 64 µg/mL in assay [4]; 4 to 8 µg/mL (≈ 7.75 to 15.5 µM) in assay [5]; more than 64 µg/mL in assay [6]. The same molecule displayed an EC50 in assay [7] of 30 to 500 µM.

`CCN1CCN(C(=O)NC(C(=O)N[C@H]2Cc3ccc(C=O)c(C(=O)O)c3OB2O)c2csc(N)n2)C(=O)C1=O` (stereo partly drawn) [Example 57, (3R)-3-(2-(2-aminothiazol-4-yl)-2-(4-ethyl-2,3-dioxopiperazine-1-carboxamido)acetamido)-7-formyl-2-hydroxy-3,4-dihydro-2H-benzo[e][1,2]oxaborinine-8-carboxylic acid]: the MIC in assay [1] was 16 to 32 µg/mL (≈ 28.7 to 57.3 µM); in assay [2], more than 64 µg/mL; in assay [3] it was 16 to 32 µg/mL (≈ 28.7 to 57.3 µM); in assay [4] it was more than 64 µg/mL; in assay [5] it was 4 to 8 µg/mL (≈ 7.16 to 14.3 µM); in assay [6], more than 64 µg/mL. Also, in assay [7], the EC50 was 30 to 500 µM.

As for `CCN1CCN(C(=O)NC(C(=O)N[C@H]2Cc3ccc(CO)c(C(=O)O)c3OB2O)c2csc(N)n2)C(O)C1=O` (stereo partly drawn) [Example 58, (3R)-3-(2-(2-aminothiazol-4-yl)-2-(4-ethyl-2-hydroxy-3-oxopiperazine-1-carboxamido)acetamido)-2-hydroxy-7-(hydroxymethyl)-3,4-dihydro-2H-benzo[el][1,2]oxaborinine-8-carboxylic acid], the MIC in assay [1], in assay [2], in assay [3], in assay [4], in assay [5] and in assay [6] was more than 64 µg/mL in each case. The EC50 in assay [7] was in the range of 30 to 500 µM.

On to `CCN1CCN(C(=O)NC(C(=O)N[C@H]2Cc3ccc(O[C@@H]4CN[C@H](C(=O)N(C)C)C4)c(C(=O)O)c3OB2O)c2ccccc2)C(=O)C1=O` (stereo partly drawn) [Example 59, (3R)-7-(((3S,5S)-5-(dimethylcarbamoyl)pyrrolidin-3-yl)oxy)-3-(2-(4-ethyl-2,3-dioxopiperazine-1-carboxamido)-2-phenylacetamido)-2-hydroxy-3,4-dihydro-2H-benzo[e][1,2]oxaborinine-8-carboxylic acid], for which the MIC is more than 64 µg/mL in assay [1]; more than 64 µg/mL in assay [2]; more than 64 µg/mL in assay [3]; more than 64 µg/mL in assay [4]; 4 to 8 µg/mL (≈ 6.02 to 12 µM) in assay [5]; more than 64 µg/mL in assay [6]. This molecule returned an EC50 in assay [7] of 30 to 500 µM.

Turning to `CCN1CCN(C(=O)NC(C(=O)N[C@H]2Cc3ccc(OCCN)c(C(=O)O)c3OB2O)c2ccccc2)C(=O)C1=O` (stereo partly drawn) [Example 60, (3R)-7-(2-aminoethoxy)-3-(2-(4-ethyl-2,3-dioxopiperazine-1-carboxamido)-2-phenylacetamido)-2-hydroxy-3,4-dihydro-2H-benzo[e][1,2]oxaborinine-8-carboxylic acid], the MIC in assay [1] was more than 64 µg/mL; in assay [2], more than 64 µg/mL; in assay [3], more than 64 µg/mL; in assay [4] it was more than 64 µg/mL; in assay [5] it was 16 to 32 µg/mL (≈ 28.2 to 56.4 µM); in assay [6], more than 64 µg/mL. In assay [7], the EC50 was 30 to 500 µM.

In the case of `CCN1CCN(C(=O)NC(C(=O)N[C@H]2Cc3cccc(C(=O)O)c3OB2O)c2cccc(O)c2)C(=O)C1=O` (stereo partly drawn) [Example 68, (3R)-3-(2-(4-ethyl-2,3-dioxopiperazine-1-carboxamido)-2-(3-hydroxyphenyl)acetamido)-2-hydroxy-3,4-dihydro-2H-benzo[e][1,2]oxaborinine-8-carboxylic acid], the MIC in assay [1] was in the range of 4 to 8 µg/mL (≈ 7.63 to 15.3 µM); in assay [2], 16 to 32 µg/mL (≈ 30.5 to 61 µM); in assay [3], 4 to 8 µg/mL (≈ 7.63 to 15.3 µM); in assay [4] it was 16 to 32 µg/mL (≈ 30.5 to 61 µM); in assay [5], 0.25 to 0.5 µg/mL (≈ 0.477 to 0.954 µM); in assay [6] it was 16 to 32 µg/mL (≈ 30.5 to 61 µM). For the same molecule, the EC50 in assay [7] lay in the range of 30 to 500 µM.

Regarding `CCN1CCN(C(=O)NC(C(=O)N[C@H]2Cc3cccc(C(=O)O)c3OB2O)c2ccc(O)cc2O)C(=O)C1=O` (stereo partly drawn) [Example 69, (3R)-3-(2-(2,4-dihydroxyphenyl)-2-(4-ethyl-2,3-dioxopiperazine-1-carboxamido)acetamido)-2-hydroxy-3,4-dihydro-2H-benzo[e][1,2]oxaborinine-8-carboxylic acid], the MIC is 4 to 8 µg/mL (≈ 7.4 to 14.8 µM) in assay [1]; more than 64 µg/mL in assay [2]; 4 to 8 µg/mL (≈ 7.4 to 14.8 µM) in assay [3]; 16 to 32 µg/mL (≈ 29.6 to 59.2 µM) in assay [4]; 0.25 to 0.5 µg/mL (≈ 0.463 to 0.925 µM) in assay [5]; more than 64 µg/mL in assay [6]. This molecule showed a concentration for a half-maximal effect (EC50) in assay [7] of less than 30 µM.

Turning to `CCN1CCN(C(=O)NC(C(=O)N[C@H]2Cc3cccc(C(=O)O)c3OB2O)c2ccc(O)cc2OC)C(=O)C1=O` (stereo partly drawn) [Example 70, (3R)-3-(2-(4-ethyl-2,3-dioxopiperazine-1-carboxamido)-2-(4-hydroxy-2-methoxyphenyl)acetamido)-2-hydroxy-3,4-dihydro-2H-benzo[e][1,2]oxaborinine-8-carboxylic acid], the MIC was 16 to 32 µg/mL (≈ 28.9 to 57.7 µM) in assay [1]; more than 64 µg/mL in assay [2]; 16 to 32 µg/mL (≈ 28.9 to 57.7 µM) in assay [3]; more than 64 µg/mL in assay [4]; 1 to 2 µg/mL (≈ 1.8 to 3.61 µM) in assay [5]; more than 64 µg/mL in assay [6]. Further, the concentration giving a half-maximal response (EC50) in assay [7] fell in the range of 30 to 500 µM.

Regarding `O=C(O)c1ccc(C(NC(=O)c2c(F)cc(O)c(O)c2Cl)C(=O)N[C@H]2Cc3ccc(F)c(C(=O)O)c3OB2O)cc1F` (stereo partly drawn) [Example 71, (3R)-3-(2-(4-carboxy-3-fluorophenyl)-2-(2-chloro-6-fluoro-3,4-dihydroxybenzamido)acetamido)-7-fluoro-2-hydroxy-3,4-dihydro-2H-benzo[e][1,2]oxaborinine-8-carboxylic acid], the MIC in assay [1], in assay [2], in assay [3], in assay [4], in assay [5] and in assay [6] was more than 64 µg/mL throughout. Moreover, in assay [7], the EC50 is more than 500 µM.

For the molecule `CCN1CCN(C(=O)NC(C(=O)N[C@H]2Cc3cccc(C(=O)O)c3OB2O)c2cccc(N)c2)C(=O)C1=O` (stereo partly drawn) [Example 72, (3R)-3-(2-(3-aminophenyl)-2-(4-ethyl-2,3-dioxopiperazine-1-carboxamido)acetamido)-2-hydroxy-3,4-dihydro-2H-benzo[e][1,2]oxaborinine-8-carboxylic acid], the MIC in assay [1] is 4 to 8 µg/mL (≈ 7.64 to 15.3 µM); in assay [2], more than 64 µg/mL; in assay [3], 1 to 2 µg/mL (≈ 1.91 to 3.82 µM); in assay [4] it was more than 64 µg/mL; in assay [5], 0.25 to 0.5 µg/mL (≈ 0.478 to 0.955 µM); in assay [6], more than 64 µg/mL. The concentration giving a half-maximal response (EC50) in assay [7] is less than 30 µM.

Regarding `CCN1CCN(C(=O)NC(C(=O)N[C@H]2Cc3cccc(C(=O)O)c3OB2O)c2cccc(NC(=O)c3ccc(O)c(O)c3Cl)c2)C(=O)C1=O` (stereo partly drawn) [Example 73, (3R)-3-(2-(3-(2-chloro-3,4-dihydroxybenzamido)phenyl)-2-(4-ethyl-2,3-dioxopiperazine-1-carboxamido)acetamido)-2-hydroxy-3,4-dihydro-2H-benzo[e][1,2]oxaborinine-8-carboxylic acid], the MIC is more than 64 µg/mL in assay [1]; more than 64 µg/mL in assay [2]; 16 to 32 µg/mL (≈ 23.1 to 46.1 µM) in assay [3]; more than 64 µg/mL in assay [4]; 1 to 2 µg/mL (≈ 1.44 to 2.88 µM) in assay [5]; more than 64 µg/mL in assay [6]. The molecule further returned an EC50 in assay [7] of less than 30 µM.

As a reminder, the EC50 is the concentration giving half of the maximal effect. A higher EC50 goes with a less potent agent.
